Drawing on US6410558B1, “Fungicides for the control of take-all disease of plants” (Monsanto Technology LLC, priority 1991, dated 2002), this text covers melting point, inhibition and pest or weed control for 23 molecules.

Bounds are passed on as bounds.

The subject of data set [1] is Gaeumannomyces graminis var. tritici (Ggt). Briefly: In vitro Assay: mycelial growth of Ggt on minimal media agar plates containing test compound. In kind it is cell-based. The following applies: Gaeumannomyces graminis, dark, 19-20° C., 4 to 5 days, diameter of mycelial growth; for inhibition at 0.1 ppm: 0.1 ppm in minimal media agar, read-out: In vitro (ppm) 0.1, Percent Inhibition; for inhibition at 1 ppm: 1 ppm in minimal media agar, read-out: In vitro (ppm) 1, Percent Inhibition; for inhibition at 10 ppm: 10 ppm in minimal media agar, read-out: In vitro (ppm) 10, Percent Inhibition. An outline of the steps:
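Ggt mycelial diameter read after 4 to 5 days in darkness at 19-20° C, from three 4-mm plugs placed on Czapek Dox minimal agar containing test compound delivered in acetone. Inhibition expressed as percent versus untreated plates, plug size (4 mm) subtracted from both.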

A further data set deals with Ggt. Briefly: In vivo Assay: control of Ggt on wheat grown in pots of Ggt-infested soil, root disease rating. On the set-up: species or system Gaeumannomyces graminis var. tritici. The following applies: Gaeumannomyces graminis, 672 h; 0.5 mg active ingredient per pot; 'Bergen' or 'Anza' wheat in Ggt-infested soil; after four weeks; vs untreated control; read-out: In vivo, percent disease control. An outline of the steps:
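Wheat ('Bergen' or 'Anza') seeds in soil infested with Ggt-colonised oats (4% v/v) treated at 0.5 mg active ingredient per pot in acetone/water with Tween 20; five pots per treatment. After four weeks, seminal roots rated 0–5; trimmed mean of three replicates converted to percent disease control versus untreated.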

Turning to `CC(CCl)NC(=O)c1c(Cl)cccc1[Si](C)(C)C` (stereo not drawn) [Example 171, 2-Chloro-N-(2-chloro-1-methylethyl)-6-(trimethylsilyl)benzamide], the melting point (usually the temperature of the solid-liquid transition) lay within 150 to 151 °C. Also, in data set [1], the inhibition (as a rule, the change of the read-out against control, counted positive when it falls) at 0.1 ppm was found to be 48%; the inhibition at 1 ppm amounted to 88%; the inhibition at 10 ppm stood at 97%. Moreover, the pest or weed control at 0.5 mg/pot with Ggt came to 87%.
As to `CC1(c2cccc(F)c2C(=O)NCCCl)CCC1` [Example 199, N-(2-Chloroethyl)-2-fluoro-6-(1-methylcyclobutyl)benzamide], the melting point fell in the range of 108 to 110 °C.
As for `CCN(C(=O)OC(C)(C)C)C(=O)c1c(Cl)cccc1[Si](C)(C)C` [Example 211, [2-Chloro-6-(trimethylsilyl)benzoyl]ethylcarbamic acid, 1,1-dimethylethyl ester], in data set [1], the inhibition at 0.1 ppm is less than 0%, the inhibition at 1 ppm came to 82% and the inhibition at 10 ppm stood at 90%. In the data set with Ggt, the pest or weed control at 0.5 mg/pot was 96%.
As to `CCNC(=O)c1c(Cl)cccc1[Si](C)(C)CC` [Example 212, 2-Chloro-N-ethyl-6-(ethyldimethylsilyl)benzamide], in data set [1], the inhibition at 0.1 ppm amounted to 77%, the inhibition at 1 ppm turned out to be 54% and the inhibition at 10 ppm is 90%. Also, the pest or weed control at 0.5 mg/pot in the data set on Ggt came out at 96%.
With `CCNC(=O)c1cc(Cl)ccc1[Si](C)(C)C` [Example 213, 5-Chloro-N-ethyl-2-(trimethylsilyl)benzamide], in data set [1], the inhibition at 0.1 ppm worked out at 9%, the inhibition at 1 ppm is 82% and the inhibition at 10 ppm is 79%. Further, the pest or weed control at 0.5 mg/pot in the data set with Ggt worked out at 87%.
The like results for `CCNC(=O)c1c(Cl)ccc([N+](=O)[O-])c1[Si](C)(C)C` [Example 215, 6-Chloro-N-ethyl-3-nitro-2-(trimethylsilyl)benzamide] were, in that order, 46%, 96%, 100% and 57%.
With `CCNC(=O)c1c([Si](C)(C)C)ccc([N+](=O)[O-])c1Cl` [Example 216, 2-Chloro-N-ethyl-3-nitro-6-(trimethylsilyl)benzamide], in data set [1], the inhibition at 0.1 ppm came to 25%, the inhibition at 1 ppm was 54% and the inhibition at 10 ppm is 92%. Moreover, the pest or weed control at 0.5 mg/pot in the data set with Ggt amounted to 68%.
Consider `CCNC(=O)c1cc(N)ccc1[Si](C)(C)C` [Example 217, 5-Amino-N-ethyl-2-(trimethylsilyl)benzamide], for which, in data set [1], the inhibition at 0.1 ppm amounted to 16%, the inhibition at 1 ppm was found to be 68% and the inhibition at 10 ppm amounted to 100%. In addition, the pest or weed control at 0.5 mg/pot in the data set on Ggt came out at 0%.
As to `CCNC(=O)c1c([Si](C)(C)C)ccc(Cl)c1F` [Example 218, 3-Chloro-N-ethyl-2-fluoro-6-(trimethylsilyl)benzamide], in data set [1], the inhibition at 0.1 ppm stood at 18%, the inhibition at 1 ppm stood at 94% and the inhibition at 10 ppm came out at 100%. The pest or weed control at 0.5 mg/pot in the data set with Ggt is 99%.
Regarding `CCNC(=O)c1c([Si](C)(C)C)ccc(OC)c1Cl` [Example 219, 2-Chloro-N-ethyl-3-methoxy-6-(trimethylsilyl)benzamide], in data set [1], the inhibition at 0.1 ppm is 50%, the inhibition at 1 ppm is 94% and the inhibition at 10 ppm is 100%. In addition, the pest or weed control at 0.5 mg/pot in the data set with Ggt came to 97%.
With `CCNC(=O)c1c([Si](C)(C)C)ccc(Br)c1Cl` [Example 220, 3-Bromo-2-chloro-N-ethyl-6-(trimethylsilyl)benzamide], in data set [1], the inhibition at 0.1 ppm amounted to 75%, the inhibition at 1 ppm stood at 100% and the inhibition at 10 ppm worked out at 100%. The pest or weed control at 0.5 mg/pot with Ggt is 97%.
In the case of `CCNC(=O)c1c([Si](C)(C)C)ccc(C=O)c1Cl` [Example 223, 2-Chloro-N-ethyl-3-formyl-6-(trimethylsilyl)benzamide], in data set [1], the inhibition at 0.1 ppm was 48%, the inhibition at 1 ppm is 93% and the inhibition at 10 ppm stood at 96%. Also, the pest or weed control at 0.5 mg/pot with Ggt amounted to 82%.
Turning to `CCNC(=O)c1c([Si](C)(C)C)ccc(C(F)F)c1Cl` [Example 224, 2-Chloro-3-(difluoromethyl)-N-ethyl-6-(trimethylsilyl)benzamide], in data set [1], the inhibition at 0.1 ppm is less than 0%, the inhibition at 1 ppm turned out to be 27% and the inhibition at 10 ppm amounted to 93%. In addition, the pest or weed control at 0.5 mg/pot in the data set with Ggt is 21%.
`CCNC(=O)c1c([Si](C)(C)C)ccc(CO)c1Cl` [Example 227, 2-Chloro-N-ethyl-3-(hydroxymethyl)-6-(trimethylsilyl)benzamide]: in data set [1], the inhibition at 0.1 ppm was 36%, the inhibition at 1 ppm stood at 68% and the inhibition at 10 ppm came out at 100%. The pest or weed control at 0.5 mg/pot in the data set on Ggt worked out at 34%.
As to `CCNC(=O)c1c([Si](C)(C)C)ccc(CF)c1Cl` [Example 228, 2-Chloro-N-ethyl-3-(fluoromethyl)-6-(trimethylsilyl)benzamide], in data set [1], the inhibition at 0.1 ppm is less than 0%, the inhibition at 1 ppm worked out at 87% and the inhibition at 10 ppm stood at 96%. Further, the pest or weed control at 0.5 mg/pot in the data set with Ggt worked out at 84%.
In the same order, the values of `CCNC(=O)c1c(Cl)ccc(Br)c1[Si](C)(C)C` [Example 232, 3-Bromo-6-chloro-N-ethyl-2-(trimethylsilyl)benzamide] are 92%, 97%, 95% and 78%.
For the molecule `CCNC(=O)c1sc([Si](C)(C)C)cc1[Si](C)(C)C` [Example 249, N-Ethyl-3,5-bis(trimethylsilyl)-2-thiophenecarboxamide], in data set [1], the inhibition at 0.1 ppm stood at 17%, the inhibition at 1 ppm came out at 48% and the inhibition at 10 ppm stood at 100%. Also, the pest or weed control at 0.5 mg/pot with Ggt is 60%.
In the case of `CCNC(=O)c1sc(Cl)cc1[Si](C)(C)C` [Example 254, 5-Chloro-N-ethyl-3-(trimethylsilyl)-2-thiophenecarboxamide], in data set [1], the inhibition at 0.1 ppm was determined as 97%, the inhibition at 1 ppm was 97% and the inhibition at 10 ppm came to 100%. Moreover, the pest or weed control at 0.5 mg/pot with Ggt worked out at 40%.
With `CCNC(=O)c1sc(Br)cc1[Si](C)(C)C` [Example 266, 5-Bromo-N-ethyl-3-(trimethylsilyl)-2-thiophenecarboxamide], in data set [1], the inhibition at 0.1 ppm was 21%, the inhibition at 1 ppm stood at 61% and the inhibition at 10 ppm stood at 100%. Besides, the pest or weed control at 0.5 mg/pot with Ggt came out at 4%.
As to `CCNC(=O)c1cc([Si](C)(C)C)sc1[Si](C)(C)C` [Example 269, N-Ethyl-2,5-bis(trimethylsilyl)-3-thiophenecarboxamide], in data set [1], the inhibition at 0.1 ppm is less than 0%, the inhibition at 1 ppm was 91% and the inhibition at 10 ppm came out at 100%. Besides, the pest or weed control at 0.5 mg/pot with Ggt stood at 4%.
On to `CCNC(=O)c1c([Si](C)(C)C)sc2c1CCCC2` [Example 270, N-Ethyl-2-(trimethylsilyl)-4,5,6,7-tetrahydrobenzo[B]thiophene-3-carboxamide], for which, in data set [1], the inhibition at 0.1 ppm turned out to be 96%, the inhibition at 1 ppm came out at 100% and the inhibition at 10 ppm worked out at 100%. In addition, in the data set on Ggt, the pest or weed control at 0.5 mg/pot is 87%.
As to `CCNC(=O)c1c([Si](C)(C)C)sc(C)c1C` [Example 271, 4,5-Dimethyl-N-ethyl-2-(trimethylsilyl)-3-thiophenecarboxamide], in data set [1], the inhibition at 0.1 ppm came out at 95%, the inhibition at 1 ppm came to 100% and the inhibition at 10 ppm was 100%. For the same molecule, the pest or weed control at 0.5 mg/pot in the data set on Ggt was 97%.
In the case of `CCN(SC)C(=O)c1sccc1[Si](C)(C)C` [Example 272, N-Ethyl-N-(methylthio)-3-(trimethylsilyl)-2-thiophenecarboxamide], in data set [1], the inhibition at 0.1 ppm stood at 14%, the inhibition at 1 ppm is 23% and the inhibition at 10 ppm worked out at 100%. For the same molecule, in the data set with Ggt, the pest or weed control at 0.5 mg/pot was determined as 0%.
